{
  "source": "patent US6893829B2",
  "about": "“Human leukocyte 12-lipoxygenase and its role in the pathogenesis of disease states” (City of Hope, priority 1992, dated 2005)",
  "key": {"[1]": {"tested_on": "leukocyte 12-LO protein in HSMC", "assay": "12-LO protein expression in HSMC (Western immunoblotting)", "format": "cell-based, human", "method": "FIGS. 4A and 4B illustrate the regulation of leukocyte 12-LO protein expression by AII in HSMC. FIG. 4A is an immunoblot showing regulation by AII. FIG. 4B is a bar graph representation of densitometric analysis of immunoblot in FIG. 4A. Cells were grown in medium 199 containing 20% FBS and serum-depleted for 24 hours by placing in medium 199 containing 0.4% FBS and 0.2% BSA. Cells were treated with AII at the concentration of 2×10^−7 mol/L for 24 to 48 hours. Cells were washed with PBS and harvested by scraping. Cell pellets were lysed and cytosol fractions were electrophoresed. […]\nSDS polyacrylamide gel electrophoresis (10% running gel, 4% stacking gel) was performed according to the method of Laemmli (24). […] Nonspecific binding was evaluated using normal rabbit serum. Western blots were quantitated using a computerized video densitometer (Applied Imagining, Santa Clara, Calif.; Lynx DNA vision) and values expressed as arbitrary absorbance units.\nTo examine whether AII induces the 12-LO enzyme expression in HSMC, cells were treated with AII at the concentration of 2×10^−7 mol/L for 24 or 48 hours. […] A distinct band was detected with a molecular weight of nearly 72 kD which is the reported molecular weight of the porcine leukocyte-type of 12-LO (FIG. 4). […]"}, "JNK": {"tested_on": "JNK", "assay": "JNK activity in CHO-AT1a cells", "format": "cell-based, Chinese hamster", "settings": "AII 10^−7M", "method": "The plasmid pGEX-cJun 1/79 (Dept. Pharmacol. UCSD, La Jolla) is a GST-cJun (1-79) expression vector encoding amino acids (1-79) of cJun. The GST fusion protein expression vector was transformed into E. Coli. Protein was induced with 0.1 mM IPTG and purified by affinity binding to glutathione-agarose beads. Unstimulated or stimulated cells were lysed into WCEB (25 mM HEPES, pH 7.7, 03.M Nacl, 15 mM MgCl2, 02.mM EDTA and 0.1% triton X-100). About 50 μg protein extract was incubated with GST-cJun+GSH agarose overnight at 4° C. Phosphorylation was carried out at 30° C. for 20 minutes in the presence of 20 mM HEPES, pH 7.5, 20 mM b-glycerophosphate, 10 mM p-nitrophenolphosphate, 10 mM MgCl2, 10 mM DDT, 50 μg Na3VO4, 20 μM ATP (cold) and about 0.5 μl of new gamma ^32P-ATP. After boiling with electrophoresis sample buffer, the supernatants were analyzed on 12% SDS-PAGE. JNK activity was also measured by immunoprecipitation method using an anti-JNK antibody (Parmingen Co., San Diego) and then activities were measured using 2 μg of GST-cJun (1-79) as substrate as described in Cell, 81:1147-1157 (1995).\nIt has been discovered that the administration of AII results in biphasic activation of MAP kinase (all of the MAP kinase experiments were conducted in CHO-AT1a cells—AII receptor AT1a cDNA transfected Chinese hamster ovary cells)."}, "[2]": {"tested_on": "VEGF in vascular smooth muscle cells (VSMC)", "assay": "VEGF protein, mRNA and secretion in VSMC (Western, Northern, EIA)", "format": "cell-based, Porcine and human", "method": "In addition to the work reflected in FIGS. 8-10, it has now been discovered that AII, 12-HETE and hyperglycemia (HG) increase VEGF production in vascular smooth muscle cells (VSMC). Porcine and human VSMC were cultured for at least two passages under normal glucose (NG, 5.5 mM) or under HG conditions. VEGF protein expression was determined by Western blotting and VEGF mRNA by Northern blots. HG alone increased the level of VEGF mRNA (2.8-fold) and protein (3.2-fold). […] In addition, HG increased the secretion of VEGF into the medium as measured by a specific EIA (56.2±4 ng/ml NG vs 73±5 HG, p<0.02)."}, "[3]": {"settings": "AII 10^−7M, 4 hours, cells cultured in HG"}},
  "data": [
    {"substance": "Angiotensin II (DRVYIHPF; Angiotensin-2; UniProt P01019 25-32, looked up) [AII, peptide hormone, added to cells as stimulus]", "values": [
      {"measurement": "increase in 12-LO protein expression", "setting": "[1]; AII 2×10^−7 mol/L, 24 hour, serum free media", "result": "seven"},
      {"measurement": "12-LO expression induction", "setting": "[1]; AII, 48 hours, data not shown", "result": "4-7 fold"},
      {"measurement": "stimulation of JNK activity", "setting": "JNK", "result": "peaks at 30 minutes and remains sustained for 1 hour"},
      {"measurement": "increase in VEGF secretion (EIA)", "setting": "[2]", "result": 1.24, "unit": "fold"},
      {"measurement": "VEGF mRNA expression increase", "setting": "[2]; [3]", "result": 1.4, "unit": "fold"},
      {"measurement": "VEGF protein expression increase", "setting": "[2]; [3]", "result": 2.2, "unit": "fold"}
    ]}
  ]
}
